The subject of test [1] is Mus musculus. The experiment in a line: Antiseizure activity against electrical stimulus induced seizure in ip dosed CD-1 mouse model assessed as reduction in hindlimb tonic extension pretreated for 1 hr by maximal electroshock seizure test. It is filed as functional, organism-based.
Test [2] has as its target Synaptic vesicle glycoprotein 2A (Mus musculus, UniProt Q9JIS5). Description: Binding affinity to mouse SV2A in presence of levetiracetam by radioligand binding assay.
The subject of test [3] is Mus musculus. The experiment in a line: Antiseizure activity against ScPTZ-induced seizure in ip dosed CD-1 mouse model assessed as clonic seizures pretreated for 1 hr and measured after 30 mins by subcutaneous pentylenetetrazole test. The class given is functional, organism-based.
The test system of test [4] is Mus musculus. The experiment in a line: Anti-seizure activity against electrical stimulus induced seizure in ip dosed CD-1 mouse model assessed as normal behavior within 10 seconds after stimulation at 6 Hz and 32 mA for 3 secs pretreated for […] by psychomotor seizure test. The class given is functional, organism-based.
In test [5] the test system is Mus musculus. The experiment in a line: Antiseizure activity against ScPTZ-induced seizure in ip dosed CD-1 mouse model assessed as clonic seizures pretreated for […] and measured after 30 mins by subcutaneous pentylenetetrazole test. It is filed as functional, organism-based.
The target in test [6] is Voltage-dependent T-type calcium channel subunit alpha-1H (Homo sapiens) (UniProt O95180). The experiment in a line: Binding affinity to human Cav3.2 at 100 uM by Qpatch electrophysiological assay.
Sequence of Voltage-dependent T-type calcium channel subunit alpha-1H (Homo sapiens) (O95180 whole entry): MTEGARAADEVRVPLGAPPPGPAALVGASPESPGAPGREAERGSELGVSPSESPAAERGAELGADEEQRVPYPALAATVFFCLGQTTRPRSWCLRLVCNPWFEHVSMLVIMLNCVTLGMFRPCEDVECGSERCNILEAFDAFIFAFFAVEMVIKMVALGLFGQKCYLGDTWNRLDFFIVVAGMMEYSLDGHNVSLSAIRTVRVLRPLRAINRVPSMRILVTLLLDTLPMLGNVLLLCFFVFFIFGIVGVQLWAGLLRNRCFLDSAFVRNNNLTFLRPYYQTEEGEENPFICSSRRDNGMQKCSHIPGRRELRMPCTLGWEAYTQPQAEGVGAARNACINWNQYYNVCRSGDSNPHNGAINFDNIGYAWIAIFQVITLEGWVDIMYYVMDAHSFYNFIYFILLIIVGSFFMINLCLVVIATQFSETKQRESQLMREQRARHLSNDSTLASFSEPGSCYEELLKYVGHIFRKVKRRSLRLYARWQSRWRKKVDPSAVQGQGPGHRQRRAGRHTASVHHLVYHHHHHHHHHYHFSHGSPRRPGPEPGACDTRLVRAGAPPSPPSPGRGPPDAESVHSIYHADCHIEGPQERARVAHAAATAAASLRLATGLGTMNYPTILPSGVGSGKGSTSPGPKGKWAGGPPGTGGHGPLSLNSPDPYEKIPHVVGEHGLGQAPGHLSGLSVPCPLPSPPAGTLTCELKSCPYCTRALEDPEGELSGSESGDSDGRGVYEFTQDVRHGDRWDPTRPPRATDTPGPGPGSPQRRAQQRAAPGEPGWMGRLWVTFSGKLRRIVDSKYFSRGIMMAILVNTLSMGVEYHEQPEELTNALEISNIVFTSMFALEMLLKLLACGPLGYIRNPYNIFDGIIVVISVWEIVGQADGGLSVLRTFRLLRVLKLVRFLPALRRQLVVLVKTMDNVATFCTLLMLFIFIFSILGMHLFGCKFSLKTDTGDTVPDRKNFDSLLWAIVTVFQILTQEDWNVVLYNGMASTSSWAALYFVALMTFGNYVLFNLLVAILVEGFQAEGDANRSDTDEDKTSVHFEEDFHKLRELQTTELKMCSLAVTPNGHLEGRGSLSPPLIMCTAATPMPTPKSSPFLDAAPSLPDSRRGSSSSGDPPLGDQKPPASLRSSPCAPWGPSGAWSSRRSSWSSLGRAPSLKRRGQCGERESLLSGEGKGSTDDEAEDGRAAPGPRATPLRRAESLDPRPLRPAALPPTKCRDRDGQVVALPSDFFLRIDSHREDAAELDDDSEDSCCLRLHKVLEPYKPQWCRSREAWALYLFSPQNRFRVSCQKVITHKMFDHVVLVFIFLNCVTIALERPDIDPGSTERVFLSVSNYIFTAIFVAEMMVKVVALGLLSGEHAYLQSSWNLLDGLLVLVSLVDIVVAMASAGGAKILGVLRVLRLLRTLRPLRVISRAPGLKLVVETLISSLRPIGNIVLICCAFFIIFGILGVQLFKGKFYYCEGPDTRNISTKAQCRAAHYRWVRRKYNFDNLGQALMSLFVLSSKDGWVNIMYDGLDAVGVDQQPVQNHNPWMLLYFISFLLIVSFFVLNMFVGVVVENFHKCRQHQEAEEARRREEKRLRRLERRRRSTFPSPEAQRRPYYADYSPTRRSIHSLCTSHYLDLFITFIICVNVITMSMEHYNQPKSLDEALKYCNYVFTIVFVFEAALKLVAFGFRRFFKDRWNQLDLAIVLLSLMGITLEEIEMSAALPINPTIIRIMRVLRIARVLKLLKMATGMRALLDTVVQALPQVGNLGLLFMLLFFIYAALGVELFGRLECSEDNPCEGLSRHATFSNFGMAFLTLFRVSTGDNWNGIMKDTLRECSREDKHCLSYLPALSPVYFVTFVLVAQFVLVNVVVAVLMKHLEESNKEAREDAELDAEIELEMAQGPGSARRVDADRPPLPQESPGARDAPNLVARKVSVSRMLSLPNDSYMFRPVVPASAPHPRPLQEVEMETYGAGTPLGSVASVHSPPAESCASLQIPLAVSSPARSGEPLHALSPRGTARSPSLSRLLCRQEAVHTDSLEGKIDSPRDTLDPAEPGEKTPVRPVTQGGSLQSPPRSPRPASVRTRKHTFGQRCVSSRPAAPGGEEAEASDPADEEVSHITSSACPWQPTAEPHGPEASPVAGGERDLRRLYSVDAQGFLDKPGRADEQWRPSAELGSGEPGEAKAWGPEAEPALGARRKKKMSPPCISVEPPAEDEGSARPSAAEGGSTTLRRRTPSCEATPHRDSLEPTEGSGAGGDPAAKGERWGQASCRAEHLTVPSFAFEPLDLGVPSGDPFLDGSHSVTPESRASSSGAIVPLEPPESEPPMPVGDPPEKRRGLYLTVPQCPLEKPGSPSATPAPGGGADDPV
Test [7] relates to Mus musculus. The experiment in a line: Antiseizure activity against electrical stimulus induced seizure in ip dosed CD-1 mouse model assessed as normal behavior within 10 seconds after stimulation at 6 Hz and 32 mA for 3 secs pretreated for 0.5 hr by psychomotor seizure test. The class given is functional, organism-based.
For test [8], the species on record is Homo sapiens. Description: Binding affinity to TTX-sensitive sodium channel (unknown origin) at 100 uM.
For test [9], the species on record is Mus musculus. The experiment in a line: animal or person. The note with it: CD-1, 0.5 h.
The subject of test [10] is Mus musculus. Description: Antiseizure activity against ScPTZ-induced seizure in ip dosed CD-1 mouse model assessed as clonic seizures pretreated for 0.5 hrs and measured after 30 mins by subcutaneous pentylenetetrazole test. It is filed as functional, organism-based.

The source made the active and inactive calls. The calls are words filed in the database; no cut-off is given here. A value given as a limit tells only on which side of the number the result lay.

Sequence of Synaptic vesicle glycoprotein 2A (Q9JIS5 whole entry): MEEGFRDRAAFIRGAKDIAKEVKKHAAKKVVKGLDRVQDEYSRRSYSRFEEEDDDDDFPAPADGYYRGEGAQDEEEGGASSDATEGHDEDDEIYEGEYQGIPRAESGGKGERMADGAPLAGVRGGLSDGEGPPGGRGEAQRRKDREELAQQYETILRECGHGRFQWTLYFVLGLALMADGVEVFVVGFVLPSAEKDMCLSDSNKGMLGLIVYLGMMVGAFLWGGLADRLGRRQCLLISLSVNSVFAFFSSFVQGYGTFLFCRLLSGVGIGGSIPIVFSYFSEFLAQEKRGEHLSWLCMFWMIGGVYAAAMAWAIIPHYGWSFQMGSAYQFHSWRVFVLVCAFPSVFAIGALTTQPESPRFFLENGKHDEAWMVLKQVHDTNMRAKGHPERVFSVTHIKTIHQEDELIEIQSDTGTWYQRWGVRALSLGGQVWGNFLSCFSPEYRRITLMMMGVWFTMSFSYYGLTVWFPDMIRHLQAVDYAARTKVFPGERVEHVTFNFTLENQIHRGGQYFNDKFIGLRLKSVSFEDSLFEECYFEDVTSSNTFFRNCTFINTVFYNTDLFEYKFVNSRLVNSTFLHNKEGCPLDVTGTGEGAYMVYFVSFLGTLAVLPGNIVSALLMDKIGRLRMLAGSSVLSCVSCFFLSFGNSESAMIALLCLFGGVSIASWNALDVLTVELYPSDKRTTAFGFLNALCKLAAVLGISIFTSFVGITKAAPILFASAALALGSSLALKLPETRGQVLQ

Consider `CC[C@@H](C(N)=O)N1CCCC1=O`, for which, in [1], the EC50 is more than 500 mg/kg.

Take `C[C@@H](C(=O)NCc1ccccc1)N1C(=O)CCC1=O`: the Ki in test [2] was more than 250 µM.

As to `C[C@H](C(=O)NCc1ccccc1)N1C(=O)CCC1=O`, the Ki in test [2] is more than 250 µM.

Take `C=C(C)[C@@H]1CCC(C)=C[C@H]1c1c(O)cc(CCCCC)cc1O` [CANNABIDIOL]: the EC50 in test [1] is 80 mg/kg; in [3], 120 mg/kg.

For `CCC1(C)CC(=O)NC1=O` (stereo not drawn) [ETHOSUXIMIDE], the values for the EC50 in [4] and in [5] were more than 200 mg/kg and 140.4 mg/kg, respectively. Also, in [6], the outcome was Active.

`COC[C@@H](NC(C)=O)C(=O)NCc1ccccc1` [LACOSAMIDE]: the EC50 in test [7] was 5.3 mg/kg. Further, the result in test [8] was Active. In [9], this molecule showed an ED50 of 92 mg/kg.

As to `CCCC(CCC)C(=O)O` [VALPROIC ACID], the EC50 in test [7] turned out to be 130.6 mg/kg; in [10], 239.4 mg/kg.

The values above are taken from ChEMBL document CHEMBL5113514 (J Med Chem, 2022).
